Measurements from patent publication EP0536419B1, “TRICYCLIC TRIAZOLE DERIVATIVES, PRODUCTION AND USE THEREOF” (TORAY INDUSTRIES, INC., priority 1991, dated 1992).
Where a name gives a salt, the structure may show the parent alone. Read-outs that look alike come from different tables or passages of the source.

How the values were obtained:
[1] = tested on: passive cutaneous anaphylaxis (PCA); experiment: Test for antiallergic action: rat passive cutaneous anaphylaxis (PCA) reaction; format: in vivo; details: rats, oral, 50 mg/kg in olive oil, 1 hour before antigen challenge, read-out: Inhibition Rate (%) Anti-PCA
Description: The antiallergic action was evaluated by passive cutaneous anaphylaxis (PCA) test using rats. The test was carried out using Wister male rats having body weights of 150 - 200 g. Physiological saline containing anti-dinitrophenyl group (DNP) mouse IgE monoclonal antibody (commercially available from Seikagaku Kogyo Co., Ltd.) was intracutaneously injected in the skin of the back of each rat. Twenty three hours later, a suspension of the test compound in olive oil was orally administered at a dose of 50 mg/kg to each rat. One hour later, 0.5 ml of physiological saline containing 2 mg/ml of ovalbumin modified with dinitrophenyl hapten and 1% Evans blue were administered to each rat via femoral vein. Thirty minutes later, the rat was killed by cutting the carotid artery. The skin was peeled off and the portion stained in blue was cut out. The cut out portion was minced in […] and the pigment was extracted at 60°C for 48 hours. The minced skin was removed by centrifugation (1500 x g, 10 min.) and the absorbance at 620 nm of the supernatant was measured. Based on a preliminarily prepared calibration curve, the pigment leaked to the topical portion was quantified. As a control, olive oil alone was administered and the ratio of the amount of the pigment in test groups to the amount of the pigment in control group is expressed as inhibition rate.

PAF receptor = molecular target: T1, PAF receptor (Oryctolagus cuniculus, UniProt G1TEI7); experiment: Binding test using [3H]-PAF (PAF receptor binding test); parameters: species or system rabbit
T1 construct: Cell membrane fraction of rabbit platelets was prepared; from tissue; host or cells: rabbit platelets (cell membrane fraction)
Description: Binding Test Using [^3H]-PAF (PAF receptor binding test)
Cell membrane fraction of rabbit platelets was prepared in accordance with the method by Hwang et al (Biochemistry; 22; 4756, (1983)). In 10 mM Tris buffer containing 0.25% bovine serum albumin, 50 mg of this membrane fraction was suspended and tritium-labelled PAF [^3H]-PAF; 0.4 nM) and a test compound were added thereto. After incubating the resulting mixture at 25°C for 60 minutes, the mixture was subjected to filtration through a filter paper made of glass fibers. The filter paper was washed with cold Tris buffer three times and then transferred to a vial. A scintillator was added thereto and the dose of radioactivity was measured with a liquid scintillation counter. The inhibition rate (binding ability) of the test compound was calculated according to the following equation and IC50 values were determined by interpolation. Inhibition Rate (%) = {1 - [((A - B))/((C - B))]} x 100 [formula] (wherein A represents amount bound in the presence of the compound, B represents amount bound by non-specific binding which is the dose of [^3H]-PAF bound radioactivity in the presence of 1 µM of PAF, and C represents total amount bound which is the dose of [^3H]-PAF bound radioactivity.
As a control agent, WEB2086 (Japanese Laid-open Patent Application (Kokai) No. 65-176591) disclosed as a PAF-antagonist was used.

rabbit platelets = rabbit platelets (Oryctolagus cuniculus, UniProt G1TEI7); experiment: in vitro platelet agglutination inhibition test (PAF-induced); format: cell-based; details: rabbit platelet-rich plasma, PAF final concentration 10 ng/ml, 37°C; read-out: PAF-Induced Platelet Aggregation IC50 (converted)
Description: To determine the PAF-antagonizing property of the compounds, the PAF-induced agglutination of rabbit platelets in vitro is utilized. To obtain platelet-rich plasma (PRP), venous blood is taken from rabbit auricular vein into a plastic centrifugal tube containing 1.0% sodium citrate solution. The ratio of sodium citrate solution to blood is 1:10. The obtained citrate-containing blood is centrifuged at 70 x g (625 rpm) at room temperature for 20 minutes and the PRP in the upper layer is transferred to another plastic tube. The remaining lower layer is further centrifuged at 1500 x g (2800 rpm) for 10 minutes and the platelet poor plasma (PPP) in the upper layer is recovered. The platelet agglutination is measured by using aggregometer commercially available from Niko Bioscience, Inc. An aliquote of the PRP is poured into a cubette for measurement. Immediately thereafter, aspirin, creatinin phosphate and creatinin phosphokinase are added to final concentrations of 0.1 mM, 7 mM and 45 U/ml, respectively. Then a solution of a test compound is added and the resulting mixture is stirred at 37°C for 2 minutes. To the resultant, PAF (final concentration: 10 ng/ml) is added to induce platelet aggregation. The platelet aggregation rate is calculated from the relative maximum value in each aggregation curve taking the transmittance of PPP as the maximum aggregation (100% aggregation). Using the aggregation rate when physiological saline was added as a control, the inhibition rate which was the ratio of the aggregation rate when the test compound was added to the control was calculated and the IC50 values were determined by interpolation.

histamine = experiment: Histamine-antagonizing action: histamine-induced skin pigment leakage in rats; format: in vivo; details: Rattus norvegicus, oral, 50 mg/kg in olive oil, 1 hour before intracutaneous histamine (50 µl of 900 µM), read-out: Inhibition Rate (%) Antihistamine
Description: A suspension of a test compound in olive oil was orally administered at a dose of 50 mg/kg to each rat of the same kind as those used in 1. One hour later, physiological saline containing 1% Evans blue was intravenously administered at a dose of 3 ml/kg. Immediately thereafter, 50 µl of 900 µM histamine solution was intracutaneously administered to each rat. Thirty minutes later, the pigment in the blue-stained portion in the skin was extracted and quantified as mentioned above. Using the amount of the pigment when olive oil was administered as control, the inhibition rate which is the ratio of the amount of the pigment when the test compound was administered to the control was calculated.

[2] = tested on: PAF-induced Bronchial Hyperresponsiveness; experiment: PAF-induced bronchial hyperresponsiveness model in guinea pigs; format: in vivo; details: oral, ratio of Ach threshold value after/before PAF inhalation
Description: The test was carried out using Hartley male guinea pigs having body weights of 300 - 400 g.
Guinea pigs were retained on body plethysmo boxes without anesthesia and the respiratory resistances (Rrs) were determined by osscilation method. […] The Ach threshold value which is required for the Rrs to reach 1.5 cm H2O/ml/sec was determined. […] The Ach threshold value means the value calculated taking the value when a guinea pig is made to inhale 1000 ug/ml of Ach aerosol for 1 minute as 1 unit. The above-described operation was carried out using Animal Ast (registered trademark) commercially available from Chest M. I. Co., Ltd.
By the method of A), the bronchial responsiveness of guinea pigs, that is, the Ach threshold values were determined. Subsequently, each animal was made to inhale aerosol of 100 µg/ml of PAF solution for 10 minutes. Forty minutes after the completion of the inhalation, the bronchial responsiveness was again measured by the method of A). The bronchial hyperresponsiveness was detected based on the ratio between the Ach threshold value before and after the inhalation of PAF (Ach respiration threshold value after inhalation of PAF/Ach respiration threshold value before inhalation of […]; Post/Pre value). That is, if the bronchial hyperresponsiveness is strongly promoted, the Post/Pre value is lower than 1.0, and if it is not promoted, the Post/Pre value is about 1.0. A suspension of a test compound in olive oil was orally administered to each guinea pig and the determined Post/Pre value was compared with that of the control group to which olive oil was administered to evaluate the inhibition effect. […]

[3] = rabbit platelet membrane fraction, [3H]-PAF 0.4 nM, 25°C, 60 minutes, read-out: Receptor Binding Inhibition IC50 (converted)

T1 sequence (G1TEI7 1-342): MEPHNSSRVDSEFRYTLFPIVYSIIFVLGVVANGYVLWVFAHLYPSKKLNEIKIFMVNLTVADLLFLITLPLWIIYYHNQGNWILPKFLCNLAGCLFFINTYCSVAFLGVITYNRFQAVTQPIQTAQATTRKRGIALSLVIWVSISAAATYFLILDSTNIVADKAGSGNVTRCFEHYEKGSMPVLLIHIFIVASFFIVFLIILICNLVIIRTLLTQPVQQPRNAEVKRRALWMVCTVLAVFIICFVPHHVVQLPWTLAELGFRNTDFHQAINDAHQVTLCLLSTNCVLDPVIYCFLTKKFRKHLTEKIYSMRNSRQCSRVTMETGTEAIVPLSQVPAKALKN
rabbit platelets, sequence (G1TEI7 1-342): as above

Molecule Cc1nnc2c(=O)n(CCCN3CCC(=C(c4ccccc4)c4ccccc4)CC3)c3ccccc3n12 [Compound 4, 4,5-dihydro-1-methyl-5-[3-[4-(diphenylmethylene)piperidin-1-yl]propyl][1,2,4]triazolo[4,3-a] quinoxalin-4(5H)-one] has an inhibition at 50 mg/kg [1] of 44%, an IC50 (PAF receptor; [3]) of 2.04 µM and an IC50 (rabbit platelets) of 4.08 µM. For the same molecule, the inhibition at 50 mg/kg (histamine) was 76%.

Cc1nnc2n1-c1ccccc1N(CCCN1CCN(C(c3ccc(F)cc3)c3ccc(F)cc3)CC1)C2 [Compound 45, 4,5-dihydro-1-methyl-5-[3-[4-[bis(4-fluorophenyl)methyl]piperazin-1-yl]propyl] [1,2,4]triazolo[4,3-a]quinoxaline] was tested, and the inhibition at 50 mg/kg [1] was 49%, the IC50 (PAF receptor; [3]) was 0.622 µM and the inhibition at 50 mg/kg (histamine) was 43%.

Molecule Cc1nnc2n1-c1ccccc1N(CCCN1CCC(=C(c3ccccc3)c3ccccc3)CC1)C2 [Compound 46, 4,5-dihydro-1-methyl-5-[3-[4-(diphenylmethylene)piperidin-1-yl]propyl] [1,2,4]triazolo[4,3-a]quinoxaline] has an inhibition at 50 mg/kg [1] of 65%, an IC50 (PAF receptor; [3]) of 0.378 µM and a Post/Pre ([2]; Dose 0.1 mg/kg) of 1.14. For the same molecule, the Post/Pre ([2]; Dose 0.3 mg/kg) was 1.64 and the inhibition at 50 mg/kg (histamine) was 72%.

In the case of Cc1nnc2n1-c1ccccc1N(CCCN1CCC(c3c[nH]c4ccccc34)CC1)C2 [Compound 49, 4,5-dihydro-1-methyl-5-[3-[4-(3-indolyl)piperidine-1-yl]propyl] [1,2,4]triazolo[4,3-a]quinoxaline], the inhibition at 50 mg/kg [1] is reported as 58%, the IC50 (PAF receptor; [3]) is reported as 3.99 µM and the inhibition at 50 mg/kg (histamine) is reported as 65%.

CCc1nnc2n1-c1ccccc1N(CCCN1CCC(c3c[nH]c4ccccc34)CC1)C2 [Compound 52, 1-ethyl-4,5-dihydro-5-[3-[4-(3-indolyl)piperidin-1-yl]propyl] [1,2,4]triazolo[4,3-a]quinoxaline] showed an inhibition at 50 mg/kg [1] of 65%, an IC50 (PAF receptor; [3]) of 7.94 µM and an IC50 (rabbit platelets) of 12.3 µM. The Post/Pre ([2]; Dose 1 mg/kg) was 1.37 and the inhibition at 50 mg/kg (histamine) was 47%.

Work on Cc1nnc2n1-c1ccccc1N(CCCN1CCC(Nc3nc4ccccc4n3Cc3ccc(F)cc3)CC1)C2 [Compound 73, 4,5-dihydro-1-methyl-5-[3-[4-[1-(4-fluorobenzyl)benzimidazol-2-ylamino]-piperidin-1-yl]propyl][1,2,4]triazolo[4,3-a] quinoxaline] yielded an IC50 (PAF receptor; [3]) of 5.63 µM, an IC50 (rabbit platelets) of 8.17 µM and a Post/Pre ([2]; Dose 1 mg/kg) of 1.18.

Cc1nnc2n1-c1ccccc1N(CCCN1CCC(C(O)(c3ccc(F)cc3)c3ccc(F)cc3)CC1)C2 [Compound 75, 4,5-dihydro-1-methyl-5-[3-[4-[hydroxybis(4-fluorophenyl)methyl]piperidin-1-yl]propyl][1,2,4]triazolo[4,3-a] quinoxaline tartaric acid salt] gave an inhibition at 50 mg/kg [1] of 42%, an IC50 (PAF receptor; [3]) of 0.603 µM and an IC50 (rabbit platelets) of 0.309 µM. The inhibition at 50 mg/kg (histamine) was 19%.

Work on Cc1nnc2n(CCCN3CCN(C(c4ccccc4)c4ccccc4)CC3)c3ccccc3n12 [Compound 189, 3-methyl-9-[3-[4-(diphenylmethyl)piperazin-1-yl]propyl]-9H-[1,2,4]triazolo[4,3-a]benzimidazole dihydrochloride] yielded an inhibition at 50 mg/kg [1] of 43%, an IC50 (PAF receptor; [3]) of 0.26 µM and an IC50 (rabbit platelets) of 0.577 µM. The inhibition at 50 mg/kg (histamine) was 57%.

Cc1nnc2n(CCCN3CCC(c4c[nH]c5ccccc45)CC3)c3ccccc3n12.O=C(O)/C=C/C(=O)O [Compound 192, 3-methyl-9-[3-[4-(3-indolyl)piperidin-1-yl]propyl]-9H-[1,2,4]triazolo[4,3-a]benzimidazole fumaric acid salt] showed an inhibition at 50 mg/kg [1] of 74%, an IC50 (PAF receptor; [3]) of 1.31 µM and a Post/Pre ([2]; Dose 1 mg/kg) of 1.81.

Cc1nnc2n(CCCN3CCC(C(O)(c4ccc(F)cc4)c4ccc(F)cc4)CC3)c3ccccc3n12 [Compound 199, 3-methyl-9-[3-[4-[hydroxybis(4-fluorophenyl)methyl]piperidin-1-yl]propyl]-9H-[1,2,4]triazolo[4,3-a]benzimidazole fumaric acid salt] was tested, and the inhibition at 50 mg/kg [1] was 48%, the IC50 (PAF receptor; [3]) was 0.0554 µM and the IC50 (rabbit platelets) was 0.19 µM.

Cc1nnc2n(CCCN3CCC(c4c[nH]c5ccccc45)CC3)c3cc(Cl)ccc3n12 [Compound 205, 3-methyl-7-chloro-9-[3-[4-(3-indolyl)piperidin-1-yl]propyl]-9H-[1,2,4]triazolo[4,3-a]benzimidazole] was tested, and the IC50 (PAF receptor; [3]) was 2.91 µM and the IC50 (rabbit platelets) was 5.15 µM.

Work on Cc1nnc2n(CCCN3CCC(=C4c5ccccc5C=Cc5ccccc54)CC3)c3ccccc3n12 [Compound 206, 3-methyl-9-[3-[4-(5H-dibenzo[a,d]cyclohepten-5-ylidene)piperidin-1-yl]propyl]-9H-[1,2,4]triazolo[4,3-a]benzimidazole] yielded an IC50 (PAF receptor; [3]) of 1.81 µM and an IC50 (rabbit platelets) of 4.32 µM.

Cc1nnc2n1-c1ccccc1N(CCCN1CCN(C(c3ccccc3)c3ccc(Cl)cc3)CC1)CC2 (stereo not drawn) [Compound 214, 5,6-dihydro-1-methyl-6-[3-[4-[(4-chlorophenyl)phenylmethyl]piperazin-1-yl]propyl]-4H[1,2,4]triazolo[4,3-a][1,5]benzodiazepine fumaric acid salt] gave an inhibition at 50 mg/kg [1] of 75% and an IC50 (rabbit platelets) of 6.22 µM.

Molecule Cc1nnc2n1-c1sc(CCC(=O)N3CCOCC3)cc1C(c1ccccc1Cl)=NC2 [WEB2086, reference compound] has an IC50 (PAF receptor) of 0.11 µM and a Post/Pre ([2]; Dose 3 mg/kg) of 0.89.
